Results reported in US20100048705A1, “METHODS OF TREATING AND PREVENTING NEOVASCULARIZATION WITH OMEGA-3 POLYUNSATURATED FATTY ACIDS” (CHILDREN'S MEDICAL CENTER CORPORATION, priority 2006, published 2010).
Entries after “also recorded” stand apart in the source; their conditions may differ.

Assays:
[1] = tested on: mice exposed to 75% oxygen; experiment: Oxygen-induced vessel loss (vaso-obliteration) at P8 after 24 hours of 75% oxygen; format: in vivo, mouse; conditions: 10 ng i.p. P5-P8; FIG. 7c
Experimental: (§1) O2-induced retinopathy (vessel degeneration, re-growth and pathological neovascularization). To induce vessel loss, postnatal day 7 (P7) mice with their nursing mother were exposed to 75% oxygen for times ranging from 24 hours to 5 days^1. To evaluate vaso-obliteration following 24 hours of oxygen exposure, P8 mice were anesthetized at with Avertin (Sigma) and perfused with 50 μl of 120 mg/ml FITC-dextran (2×10^6 molecular weight, FD2000S-5G, Sigma) in saline through the left ventricle^21. Eyes were enucleated and fixed in 4% paraformaldehyde for 2 h at 4° C. Retinas were isolated and whole-mounted with SlowFade Antifade reagent (S2828, Molecular Probes) onto polylysin-coated slides with the photoreceptor side up. Retinas were examined with a fluorescence microscope (Olympus, Tokyo), digitized images using a three-charge-coupled device color video camera (DX-950P, Sony), and processed with NORTHERN ECLIPSE software (Empix Imaging, Toronto). Retinal neovascularization was evaluated 5 days after oxygen exposure (P7-P12) at P17 when the neovascular response is greatest. […]
Quantification of vaso-obliteration and retinal neovascularization. […] Vaso-obliteration and neovascular tuft formation were quantified by comparing the number of pixels in the affected areas with the total number of pixels in the retina. […]
Resolvins and Neurorotectins. […] Retinas collected at P17 from omega-6 or omega-3 polyunsaturated fatty acid fed dams and exposed to high oxygen or room air conditions were analyzed to determine lipid mediator profiles. Polyunsaturated fatty acid derived products were extracted, identified, and quantified using a deuterium-labelled internal standard and MS-MS based mediator informatics^23. […] Following retinal staining and whole-mounting, neovascularization and vaso-obliteration were quantified at P17. Vaso-obliteration was also assessed at P8 (after 24 hours of 75% oxygen exposure) in pups given 10 ng of RvD1 (n=7), RvE1 (n=9), NPD1 (n=7), or saline/EtOH vehicle injections (n=6) i.p. from P5-P8. […]

[2] = tested on: mice with oxygen-induced retinopathy; experiment: Oxygen-induced retinopathy model: vaso-obliteration and retinal neovascularization at P17; format: in vivo, mouse; conditions: for decrease in vessel loss (VO) compared to vehicle control / decrease in neovascularization (Tufts) compared to vehicle-treated mice: 10 ng i.p. daily P6-P17, read at P17; for decrease in vessel loss (VO) compared to vehicle control / protection from vaso-obliteration compared to saline-injected controls: FIG. 7a; for decrease in neovascularization (Tufts) compared to vehicle-treated mice / neovascularization at P17 compared to saline controls: FIG. 7b; for neovascularization at P17 compared to saline controls / protection from vaso-obliteration compared to saline-injected controls: 10 ng/day i.p. P6-P17
Text: Retinopathy is modeled in the mouse eye with oxygen-induced vessel loss which precipitates hypoxia-induced retinopathy^1. One-week-old C57BL/6J mice are exposed to 75% oxygen for 5 days and then to room air. A fluorescein-dextran perfusion method is used to assess the vascular pattern. The proliferative neovascular response is quantified by counting the nuclei of new vessels extending from the retina into the vitreous in 6 microns sagittal cross-sections. Cross-sections are also stained for glial fibrillary acidic protein (GFAP). Fluorescein-dextran angiography delineates the entire vascular pattern, including neovascular tufts in flat-mounted retinas. Hyperoxia-induced neovascularization occurs at the junction between the vascularized and avascular retina in the mid-periphery. Retinal neovascularization occurs in all the pups between postnatal day 17 and postnatal day 21. This serves as a reproducible and quantifiable mouse model of oxygen-induced retinal neovascularization for the study of pathogenesis of retinal neovascularization as well as for the study of medical intervention for ROP and other retinal angiopathies in humans. This model allows assessment of retinal vessel loss, vessel re-growth after injury and pathological angiogenesis^1.
Litters of mice were subjected to the oxygen induced retinopathy model. Briefly, mice (pups with mothers) on normal chow were placed in 75% oxygen at postnatal day 7, and kept at 75% oxygen for five days. Mice were then returned to room air. During this room air phase (P12-P17) the retina becomes hypoxic due to the vessel regression that occurred while mice were in hyperoxia. Here mice were given either an omega-3 or omega-6 LCPUFA diet. At p12 (once out of oxygen, after vessel loss) or at P15 (a few days later as retinopathy was setting in).
Animals. These studies adhered to the ARVO Statement for the Use of Animals in Ophthalmic and Vision Research. Fat-1 transgenic mice contain a humanized fat-1 cDNA driven by the cytomegalovirus enhancer and a chicken β-actin promoter^9. Fat-1 and control dams were fed a defined diet with elevated omega-6 polyunsaturated fatty acids. For diet studies C57Bl/6 mothers at delivery (unless otherwise indicated for FIG. 12) were fed a defined rodent diet with 10% (w/w) safflower oil containing 2% omega-6 polyunsaturated fatty acids (AA) and no omega-3 polyunsaturated fatty acids or the same defined diet except for 2% omega-3 polyunsaturated fatty acids (DHA and EPA) and no omega-6 polyunsaturated fatty acids (AA). (Table 1) Diets were stable over time and with oxygen exposure (Table 2), unless otherwise indicated.
as §1, with “greatest. P17 mice were given a lethal dose of Avertin (Sigma) and their eyes were enucleated and fixed in 4% paraformaldehyde for 2 h at 4° C.” for “greatest.”

TNF-α = conditions: literature refs 14, 15, 16; cited from earlier work

Row | Molecule | oxygen-induced vessel loss at P8 versus saline-injected control [1] | decrease in vessel loss (VO) compared to vehicle control [2] | decrease in neovascularization (Tufts) compared to vehicle-treated mice [2] | neovascularization at P17 compared to saline controls [2] | protection from vaso-obliteration compared to saline-injected controls ([2]; P17) | TNF-α mRNA expression levels in inflammatory models (TNF-α) | vaso-obliteration versus fellow saline-injected eye ([2]; intraocular (intravitreous) 12.5 μg at P12, omega-6 fed mice, P17, FIG. 11a) | retinal neovascularization versus fellow saline-injected eye ([2]; intraocular (intravitreous) 12.5 μg at P12, omega-6 fed mice, P17, FIG. 11b) | vaso-obliteration (vessel loss) versus saline injected controls ([2]; intraperitoneal, 500 μg/mouse at P7, P12, P14, P16, omega-6 fed mice, P17, FIG. 10a) | pathologic neovascularization versus saline injected controls ([2]; intraperitoneal, 500 μg/mouse at P7, P12, P14, P16, omega-6 fed mice, P17, FIG. 10b)
1 | CC/C=C\C[C@H](O)\C=C/C=C/C=C/[C@H](O)C/C=C\C/C=C\CCC(=O)O [NPD1, 10R,17S dihydroxy-docosa-4Z,7Z,11E,13E,15Z,19z-hexaneoic acid] | No apparent differences; also recorded: no protective action | 40% | 30% | less neovascularization | significant protection | significantly reduce |  |  |  | 
2 | CC/C=C\C[C@H](O)/C=C/C=C\C=C\C=C\[C@@H](O)[C@@H](O)C/C=C\CCC(=O)O [RvD1, 7S,8R,17S-trihydroxy-docosa-4Z,9E,11E,13Z,15E,19Z-hexaenoic acid] | No apparent differences | 40% | 30% | less neovascularization | significant protection | significantly reduce |  |  |  | 
3 | CC[C@@H](O)/C=C/C=C\C[C@@H](O)/C=C/C=C/C=C\[C@@H](O)CCCC(=O)O [RvE1, 5S,12R,18R-trihydroxy-6Z,8E,10E,14Z,16E-eicosapentaenoic acid] | No apparent differences; also recorded: no protective action | 40% | 30% | less neovascularization | significant protection | significantly reduce |  |  |  | 
4 | etanercept [reference compound] |  |  |  |  |  |  | significantly reduce | suppressed; also recorded: significantly improved | significantly protected; also recorded: significant reduction | significantly protected; also recorded: significant reduction
